One compound from ChEMBL document CHEMBL1151232, “First synthesis and determination of the absolute configuration of sulphostin, a novel inhibitor of dipeptidyl peptidase IV” (J Nat Prod, 2004) can be followed below.

In assay [1] the target is Dipeptidyl peptidase 4 (Rattus norvegicus) (UniProt P14740). The conditions noted are these: 0.5 ng/ml.
Description: Inhibition of rat kidney DPP4 at 0.5 ng/ml
The target is the same in assay [2]. The conditions noted are these: 1 ng/ml.
Description: Inhibition of rat kidney DPP4 at 1 ng/ml
Assay [3] shares this target. The conditions noted are these: 2 ng/ml.
Description: Inhibition of rat kidney DPP4 at 2 ng/ml
Assay [4] shares this target. Particulars: 4 ng/ml.
Description: Inhibition of rat kidney DPP4 at 4 ng/ml
Assay [5] shares this target. The conditions noted are these: 8 ng/ml.
Description: Inhibition of rat kidney DPP4 at 8 ng/ml
Assay [6] has the same target. The conditions noted are these: 16 ng/ml.
Description: Inhibition of rat kidney DPP4 at 16 ng/ml
Assay [7] shares this target. The conditions noted are these: 32 ng/ml.
Description: Inhibition of rat kidney DPP4 at 32 ng/ml
For assay [8] the target is unchanged. Particulars: 64 ng/ml.
Description: Inhibition of rat kidney DPP4 at 64 ng/ml

Each structure is given as a SMILES string.

Sequence of Dipeptidyl peptidase 4 (Rattus norvegicus) (P14740 whole entry, looked up): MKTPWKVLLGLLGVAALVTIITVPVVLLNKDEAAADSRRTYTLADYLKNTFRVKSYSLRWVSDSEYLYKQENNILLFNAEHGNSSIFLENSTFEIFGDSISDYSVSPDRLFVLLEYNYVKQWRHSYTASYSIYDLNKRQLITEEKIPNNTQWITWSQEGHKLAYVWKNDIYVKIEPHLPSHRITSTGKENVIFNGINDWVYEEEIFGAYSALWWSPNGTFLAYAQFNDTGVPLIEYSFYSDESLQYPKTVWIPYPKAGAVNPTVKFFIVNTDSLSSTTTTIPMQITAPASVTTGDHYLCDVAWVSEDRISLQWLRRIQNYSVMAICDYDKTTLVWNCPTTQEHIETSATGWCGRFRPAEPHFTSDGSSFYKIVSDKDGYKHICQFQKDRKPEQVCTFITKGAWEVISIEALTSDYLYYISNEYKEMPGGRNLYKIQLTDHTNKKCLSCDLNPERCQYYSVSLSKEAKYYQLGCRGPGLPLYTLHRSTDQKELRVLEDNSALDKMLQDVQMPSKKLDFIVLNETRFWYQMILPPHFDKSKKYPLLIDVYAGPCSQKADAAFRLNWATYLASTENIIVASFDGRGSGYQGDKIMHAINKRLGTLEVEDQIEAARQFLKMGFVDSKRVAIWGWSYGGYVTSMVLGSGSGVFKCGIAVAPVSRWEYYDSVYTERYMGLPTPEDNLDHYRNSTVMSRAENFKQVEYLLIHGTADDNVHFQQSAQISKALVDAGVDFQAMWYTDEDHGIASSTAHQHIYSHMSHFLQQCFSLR

Take `N[C@H]1CCCN([P@@](N)(=O)NS(=O)(=O)O)C1=O`: the inhibition (usually the drop in the measured response relative to a control, in per cent) in assay [1] came out at 15.9%; in assay [2], 20.2%; in assay [3], 30.6%; in assay [4], 41.9%; in assay [5] it was 54.4%; in assay [6], 66.9%. Further, the inhibition in assay [7] came to 77.4%; in assay [8], 84.5%.
